Usually IC50 stands for the midpoint of a concentration-inhibition curve.

The results in this text go back to patent US10308644B2, “Heterocyclic compounds as immunomodulators” (Incyte Corporation, priority 2016, dated 2019).

In this test the target is PD-1/PD-L1 (Homo sapiens (Human), UniProt Q9NZQ7). The test is described as follows: PD-1/PD-L1 Homogeneous Time-Resolved Fluorescence (HTRF) Binding Assay. As to conditions: recombinant human PD-1 (3 nM) and PD-L1 (10 nM), 25° C., PBS pH 7.4. Put shortly:
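Fc-tagged human PD-1 (25-167, 3 nM) and His-tagged PD-L1 (19-238, 10 nM) preincubated with inhibitor 40 min in PBS pH 7.4, 0.05% Tween-20, 0.1% BSA, 1% DMSO, 25 °C. Binding detected by HTRF (Eu anti-IgG/APC anti-His, 665/620 nm) after 60 min; IC50 from percent control activity.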
A general note: In TR-FRET formats the signal depends on donor and acceptor labels being close together.

Sequence of PD-1/PD-L1 (Q9NZQ7 19-238): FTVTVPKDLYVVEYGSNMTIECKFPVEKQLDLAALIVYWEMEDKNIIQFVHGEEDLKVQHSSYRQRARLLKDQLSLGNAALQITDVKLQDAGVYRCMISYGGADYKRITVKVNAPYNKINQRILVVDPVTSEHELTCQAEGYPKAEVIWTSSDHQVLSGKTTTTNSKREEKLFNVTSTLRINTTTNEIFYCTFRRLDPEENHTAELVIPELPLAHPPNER

On to `CCN(CCO)C1CCN(c2cccc(-c3cccc(-c4nc5cc(CN6CC[C@@H](C(=O)O)C6)cc(C#N)c5o4)c3C)c2Cl)CC1` [Example 48, (R)-1-((2-(2′-chloro-3′-(4-(ethyl(2-hydroxyethyl)amino)piperidin-1-yl)-2-methylbiphenyl-3-yl)-7-cyanobenzo[d]oxazol-5-yl)methyl)pyrrolidine-3-carboxylic acid], for which the IC50 is no more than 10 nM.

Consider `Cc1c(Nc2nccc3cc(CNC[C@@H](C)O)cnc23)cccc1-c1cccc(-c2nc3cc(CN4CC[C@@H](C(=O)O)C4)cc(C#N)c3o2)c1C` [Example 147, (R)-1-((7-cyano-2-(3′-((3-((((R)-2-hydroxypropyl)amino)methyl)-1,7-naphthyridin-8-yl)amino)-2,2′-dimethyl-[1,1′-biphenyl]-3-yl)benzo[d]oxazol-5-yl)methyl)pyrrolidine-3-carboxylic acid], for which the IC50 is no more than 10 nM.

For the molecule `Cc1c(Nc2nccc3cc(CCN4CC[C@@H](O)C4)cnc23)cccc1-c1cccc(-c2nc3cc(CN4CC[C@@H](C(=O)O)C4)cc(C#N)c3o2)c1C` [Example 167, (R)-1-((7-cyano-2-(3′-(3-(2-((R)-3-hydroxypyrrolidin-1-yl)ethyl)-1,7-naphthyridin-8-ylamino)-2,2′-dimethylbiphenyl-3-yl)benzo[d]oxazol-5-yl)methyl)pyrrolidine-3-carboxylic acid], the half-maximal inhibitory concentration (IC50) was no more than 10 nM.

Take `Cc1c(Nc2nccc3cc(CNC[C@H](C)O)cnc23)cccc1-c1cccc(-c2nc3cc(CN4CCC(C(=O)O)CC4)cc(C#N)c3o2)c1C` [Example 204, (S)-1-((7-cyano-2-(3′-(3-((2-hydroxypropylamino)methyl)-1,7-naphthyridin-8-ylamino)-2,2′-dimethylbiphenyl-3-yl)benzo[d]oxazol-5-yl)methyl)piperidine-4-carboxylic acid]: the IC50 is no more than 10 nM.

As for `Cc1c(NC(=O)c2nc3c(n2C)CCN(C)C3)cccc1-c1cccc(-c2nc3cc(CN4CC[C@@H](C(=O)O)C4)cc(C#N)c3o2)c1C` [Example 80, (R)-1-((7-cyano-2-(3′-(1,5-dimethyl-4,5,6,7-tetrahydro-1H-imidazo[4,5-c]pyridine-2-carboxamido)-2,2′-dimethylbiphenyl-3-yl)benzo[d]oxazol-5-yl)methyl)pyrrolidine-3-carboxylic acid], the IC50 was no more than 10 nM.

As for `Cc1c(Nc2nccc3cc(CNC[C@@H](C)O)cnc23)cccc1-c1cccc(-c2nc3cc(CN4CC[C@@](C)(C(=O)O)C4)cc(C#N)c3o2)c1C` [Example 192, (R)-1-((7-cyano-2-(3′-(3-(((R)-2-hydroxypropylamino)methyl)-1,7-naphtyridin-8-ylamino)-2,2′-dimethylbiphenyl-3-yl)benzo[d]oxazol-5-yl)methyl)-3-methylpyrrolidine-3-carboxylic acid], the IC50 was no more than 10 nM.

In the case of `Cc1c(-c2nc3c(o2)CCNC3)cccc1-c1cccc(-c2nc3cc(CN4CC[C@@H](C(=O)O)C4)cc(Cl)c3o2)c1C` [Example 74, (R)-1-((7-chloro-2-(2,2′-dimethyl-3′-(4,5,6,7-tetrahydrooxazolo[4,5-c]pyridin-2-yl)-[1,1′-biphenyl]-3-yl)benzo[d]oxazol-5-yl)methyl)pyrrolidine-3-carboxylic acid], the IC50 is no more than 10 nM.

Regarding `Cc1c(Nc2nccc3cc(CN4CCC4)cnc23)cccc1-c1cccc(-c2nc3cc(CN4CC[C@@H](C(=O)O)C4)cc(C#N)c3o2)c1C` [Example 135, (R)-1-((2-(3′-(3-(azetidin-1-ylmethyl)-1,7-naphthyridin-8-ylamino)-2,2′-dimethylbiphenyl-3-yl)-7-cyanobenzo[d]oxazol-5-yl)methyl)pyrrolidine-3-carboxylic acid], the IC50 is no more than 10 nM.

For the molecule `Cc1c(Nc2nccc3c(CN4CC[C@H](O)C4)ccnc23)cccc1-c1cccc(-c2nc3cc(CN4CC[C@H](C(=O)O)C4)cc(C#N)c3o2)c1C` [Example 144, (S)-1-((7-cyano-2-(3′-((4-(((S)-3-hydroxypyrrolidin-1-yl)methyl)-1,7-naphthyridin-8-yl)amino)-2,2′-dimethyl-[1,1′-biphenyl]-3-yl)benzo[d]oxazol-5-yl)methyl)pyrrolidine-3-carboxylic acid], the IC50 is no more than 10 nM.

For `Cc1c(-c2nc3c(o2)CN(C(=O)CN2CC4CC2CN4C)C3)cccc1-c1cccc(-c2nc3cc(CN4CC[C@@H](C(=O)O)C4)cc(C#N)c3o2)c1C` (stereo partly drawn) [Example 255, (3R)-1-((7-cyano-2-(2,2′-dimethyl-3′-(5-(2-(5-methyl-2,5-diazabicyclo[2.2.1]heptan-2-yl)acetyl)-5,6-dihydro-4H-pyrrolo[3,4-d]oxazol-2-yl)biphenyl-3-yl)benzo[d]oxazol-5-yl)methyl)pyrrolidine-3-carboxylic acid], the IC50 is no more than 10 nM.

As for `Cc1c(Nc2nccc3cc(CNCCO)cnc23)cccc1-c1cccc(-c2nc3cc(CNCCC(=O)O)cc(Cl)c3o2)c1C` [Example 6, 3-(((7-chloro-2-(3′-((3-(((2-hydroxyethyl)amino)methyl)-1,7-naphthyridin-8-yl)amino)-2,2′-dimethyl-[1,1′-biphenyl]-3-yl)benzo[d]oxazol-5-yl)methyl)amino)propanoic acid], the IC50 was no more than 10 nM.

Take `Cc1c(-c2nc3cc(CN4CC5(CC(C(=O)O)C5)C4)cc(C#N)c3o2)cccc1-c1cccc(-c2nc3c(s2)CN(C(=O)CN2CC[C@H](O)C2)C3)c1C` [Example 233, 2-((7-cyano-2-(3′-(5-(2-((S)-3-hydroxypyrrolidin-1-yl)acetyl)-5,6-dihydro-4H-pyrrolo[3,4-d]thiazol-2-yl)-2,2′-dimethylbiphenyl-3-yl)benzo[d]oxazol-5-yl)methyl)-2-azaspiro[3.3]heptane-6-carboxylic acid]: the IC50 was no more than 10 nM.

Take `Cc1c(-c2nc3cc(CN4CC[C@@](C)(C(=O)O)C4)cc(C#N)c3o2)cccc1-c1cccc(NC(=O)c2nc3c(n2C)CCN(C)C3)c1Cl` [Example 88, (R)-1-((2-(2′-chloro-3′-(1,5-dimethyl-4,5,6,7-tetrahydro-1H-imidazo[4,5-c]pyridine-2-carboxamido)-2-methylbiphenyl-3-yl)-7-cyanobenzo[d]oxazol-5-yl)methyl)-3-methylpyrrolidine-3-carboxylic acid]: the IC50 was no more than 10 nM.

As for `Cc1c(Nc2nccc3cc(CN4CC[C@](C)(O)C4)cnc23)cccc1-c1cccc(-c2nc3cc(CN4CC[C@@H](C(=O)O)C4)cc(C#N)c3o2)c1C` [Example 138, (R)-1-((7-cyano-2-(3′-(3-(((S)-3-hydroxy-3-methylpyrrolidin-1-yl)methyl)-1,7-naphthyridin-8-ylamino)-2,2′-dimethylbiphenyl-3-yl)benzo[d]oxazol-5-yl)methyl)pyrrolidine-3-carboxylic acid], the IC50 was no more than 10 nM.

Take `Cc1c(-c2nc3cc(CN4CC[C@@H](C(=O)O)C4)cc(C#N)c3o2)cccc1-c1cccc(NC(=O)c2nc3c(n2C)CC(C)N(C)C3)c1Cl` (stereo partly drawn) [Example 160, (3R)-1-((2-(2′-chloro-2-methyl-3′-(1,5,6-trimethyl-4,5,6,7-tetrahydro-1H-imidazo[4,5-c]pyridine-2-carboxamido)biphenyl-3-yl)-7-cyanobenzo[d]oxazol-5-yl)methyl)pyrrolidine-3-carboxylic acid]: the concentration for half-maximal inhibition (IC50) was no more than 10 nM.

For the molecule `Cc1c(COc2cc(OCc3cncc(C#N)c3)c(CN3CC[C@@H](O)C3)cc2Cl)cccc1-c1cccc(-c2nc3cc(CN4CC[C@@H](C(=O)O)C4)cc(Cl)c3o2)c1C` [Example 148, (R)-1-((7-chloro-2-(3′-((2-chloro-5-((5-cyanopyridin-3-yl)methoxy)-4-(((R)-3-hydroxypyrrolidin-1-yl)methyl)phenoxy)methyl)-2,2′-dimethyl-[1,1′-biphenyl]-3-yl)benzo[d]oxazol-5-yl)methyl)pyrrolidine-3-carboxylic acid], the IC50 was no more than 10 nM.

For `Cc1c(-c2nc3cc(CN4CCC(C(=O)O)CC4)cc(C#N)c3o2)cccc1-c1cccc(Nc2nccc3cc(CN4CC[C@@H](O)C4)cnc23)c1Cl` [Example 188, (R)-1-((2-(2′-chloro-3′-(3-((3-hydroxypyrrolidin-1-yl)methyl)-1,7-naphthyridin-8-ylamino)-2-methylbiphenyl-3-yl)-7-cyanobenzo[d]oxazol-5-yl)methyl) piperidine-4-carboxylic acid], the IC50 was no more than 10 nM.

Take `Cc1c(-c2nc3cc(CN4CC[C@H](C(=O)O)C4)cc(C#N)c3o2)cccc1-c1cccc(-c2nc3c(s2)CN(CCO)CC3)c1C` [Example 67, (S)-1-((7-cyano-2-(3′-(5-(2-hydroxyethyl)-4,5,6,7-tetrahydrothiazolo[5,4-c]pyridin-2-yl)-2,2′-dimethyl-[1,1′-biphenyl]-3-yl)benzo[d]oxazol-5-yl)methyl)pyrrolidine-3-carboxylic acid]: the IC50 was no more than 10 nM.

Turning to `Cc1c(Nc2nccc3cc(CN4CC[C@@](C)(C(=O)O)C4)cnc23)cccc1-c1cccc(-c2nc3cc(CN[C@@H](C)CO)cc(C#N)c3o2)c1C` [Example 215, (R)-1-((8-(3′-(7-cyano-5-(((S)-1-hydroxypropan-2-ylamino)methyl)benzo[d]oxazol-2-yl)-2,2′-dimethylbiphenyl-3-ylamino)-1,7-naphthyridin-3-yl)methyl)-3-methylpyrrolidine-3-carboxylic acid], the IC50 is no more than 10 nM.

For `Cc1c(-c2nc3cc(CN4CC[C@@H](C(=O)O)C4)cc(Cl)c3o2)cccc1-c1cccc(-c2nc3c(s2)CNCC3)c1C` [Example 70, (R)-1-((7-chloro-2-(2,2′-dimethyl-3′-(4,5,6,7-tetrahydrothiazolo[5,4-c]pyridin-2-yl)-[1,1′-biphenyl]-3-yl)benzo[d]oxazol-5-yl)methyl)pyrrolidine-3-carboxylic acid], the IC50 was no more than 10 nM.

Turning to `Cc1c(Nc2nccc3cc(CN4CC[C@@](C)(C(=O)O)C4)cnc23)cccc1-c1cccc(-c2nc3cc(CN4CC[C@@H](O)C4)cc(C#N)c3o2)c1C` [Example 216, (R)-1-((8-(3′-(7-cyano-5-(((R)-3-hydroxypyrrolidin-1-yl)methyl)benzo [d]oxazol-2-yl)-2,2′-dimethylbiphenyl-3-ylamino)-1,7-naphthyridin-3-yl)methyl)-3-methylpyrrolidine-3-carboxylic acid], the IC50 was no more than 10 nM.
